Where “and” joins values, the source holds several entries; their conditions need not be identical. Identical values can stand only once.
Tested on: rat
Test: animal or person
Assay type: in vivo
Conditions: for ED50: ip

| SMILES | ED50 (Rattus norvegicus, 2 h) [mg/kg] | timepoint of peak effect (rat, in vivo) [min p. appl.] | ED50 (rat, in vivo) |
| --- | --- | --- | --- |
| O=C(O)Cc1ccccc1Nc1c(Cl)cccc1Cl [Diclofenac sodium] | 127 | 120 | 127,036 μg/kg and 127,036 (119,433- μg/kg |
| COc1ccc2c(c1)c(CC(=O)O)c(C)n2C(=O)c1ccc(Cl)cc1 [Indometacin] | 161 | 120 | 161,327 μg/kg and 161,327 (149,231- μg/kg |

Source: patent US8912226B2 (priority 2012, dated 2014)
